Experimental data as given in PubChem BioAssay AID330 (DTP/NCI, 2004).
“And” between values parts separate entries of the source, which are not always exact repeats. Equal entries are not always repeated. Toxic doses and inconclusive results are not listed. The calls were made as follows: active = survival T/C of 150% or more; inactive = T/C below 125% in these data.

Tested on: P388 leukemia ip, CD2F1 mice, survival T/C
Assay: NCI In Vivo Anticancer Drug Screen. Data for tumor model P388 Leukemia (intraperitoneal) in CD2F1 (CDF1) mice
Conditions: endpoint: median survival time, higher = longer survival
In short: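 Mice carrying the transplanted tumor received test compound or vehicle. Survival was recorded in each group, and the value is the treated-group measurement divided by that of the vehicle-treated control group.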

[1] = dose: 100.0 mg/kg/injection, schedule: Q04DX003 (ip), vehicle: Klucel (hydroxypropylcellulose) (HPC)
[2] = dose: 50.0 mg/kg/injection, schedule: Q01DX005 (ip), vehicle: saline with Tween-80
[3] = dose: 100.0 mg/kg/injection, schedule: Q01DX005 (ip), vehicle: saline with Tween-80
[4] = dose: 200.0 mg/kg/injection, schedule: Q01DX005 (ip), vehicle: saline with Tween-80
[5] = dose: 60.0 mg/kg/injection, schedule: Q01DX005 (ip), vehicle: Klucel (hydroxypropylcellulose) (HPC)
[6] = dose: 50.0 mg/kg/injection, schedule: Q01DX009 (ip), vehicle: suspension in saline
[7] = dose: 100.0 mg/kg/injection, schedule: Q01DX009 (ip), vehicle: suspension in saline

Measured: T/C

C=C(C)C(=O)OC1CCC2Cc3occ(C)c3C(OC(=O)C(=C)C)C2(C)C1C (stereo not given)
inactive: dose: 20.0 mg/kg/injection, schedule: Q01DX009 (ip), vehicle: saline with Tween-80 93 % of control | dose: 40.0 mg/kg/injection, schedule: Q01DX009 (ip), vehicle: saline with Tween-80 102 % of control | dose: 80.0 mg/kg/injection, schedule: Q01DX009 (ip), vehicle: saline with Tween-80 93 % of control | dose: 160.0 mg/kg/injection, schedule: Q01DX009 (ip), vehicle: saline with Tween-80 93 % of control

CC(C)(C)OC(=O)NN=C1CCC(C(C)(C)C)CC1 (stereo not given)
inactive: dose: 25.0 mg/kg/injection, schedule: Q04DX003 (ip), vehicle: Klucel (hydroxypropylcellulose) (HPC) 100 % of control | dose: 50.0 mg/kg/injection, schedule: Q04DX003 (ip), vehicle: Klucel (hydroxypropylcellulose) (HPC) 95 % of control | [1] 100 % of control

COC(=O)c1cccc2c[n+]3c(cc12)-c1[nH]c2cc(OC)ccc2c1CC3
inactive: [2] 100 % of control | [3] 99 % of control | [4] 108 % of control

CC(=O)N/C(=C\c1ccccc1)C(=O)NC(C)C(=O)O (stereo not given)
inactive: [2] 89 % of control | [3] 92 % of control | [4] 86 % of control

CCOC(=O)c1cn(C)c(=O)c(Br)c1C#N
inactive: [2] 92 % of control | [3] 96 % of control | [4] 93 % of control

CCCCOC(=O)NC(=O)c1cc2cc(Cl)cc(Cl)c2oc1=O
inactive: [2] 90 % of control | [3] 91 % of control

COc1cccc(C2CC(C)(O)Oc3cc4c(cc32)OCO4)c1 (stereo not given)
inactive: [5] 93 % of control

COc1ccc2c(c1OC)CN(C)[C@]13ON(c4ccccc4)[C@H](C[C@]21C)c1cc2c(cc13)OCO2
inactive: dose: 100.0 mg/kg/injection, schedule: Q04DX002 (ip), vehicle: saline with Tween-80 98 % of control | dose: 200.0 mg/kg/injection, schedule: Q04DX002 (ip), vehicle: saline with Tween-80 88 % of control | dose: 400.0 mg/kg/injection, schedule: Q04DX002 (ip), vehicle: saline with Tween-80 95 % of control

NC(=O)CC(=O)O
inactive: dose: 50.0 mg/kg/injection, schedule: Q01DX009 (ip), vehicle: saline 96 % of control | dose: 100.0 mg/kg/injection, schedule: Q01DX009 (ip), vehicle: saline 91 % of control | dose: 200.0 mg/kg/injection, schedule: Q01DX009 (ip), vehicle: saline 104 % of control

COc1ccc(CSC(=S)Nc2ccc(F)c(C)c2)cc1
inactive: [6] 99 % of control | [7] 99 % of control

O=C1C(CN2CCCC2)C(O)=C(c2ccccc2)N1c1ccccc1 (stereo not given)
inactive: dose: 100.0 mg/kg/injection, schedule: Q01DX001 (ip), vehicle: saline with Tween-80 102 % of control | dose: 200.0 mg/kg/injection, schedule: Q01DX001 (ip), vehicle: saline with Tween-80 92 % of control | dose: 400.0 mg/kg/injection, schedule: Q01DX001 (ip), vehicle: saline with Tween-80 92 % of control

CCN(CC)C(=O)N1C=CC(C)C=C1
inactive: dose: 60.0 mg/kg/injection, schedule: Q01DX005 (ip), vehicle: saline with Tween-80 100 % of control | dose: 120.0 mg/kg/injection, schedule: Q01DX005 (ip), vehicle: saline with Tween-80 101 % of control

COC(=O)/C=C/NC(=O)c1ccccc1C(=O)OC
inactive: dose: 25.0 mg/kg/injection, schedule: Q01DX009 (ip), vehicle: suspension in saline 98 % of control | [6] 100 % of control | [7] 100 % of control | dose: 200.0 mg/kg/injection, schedule: Q01DX009 (ip), vehicle: suspension in saline 100 % of control

CCCCNc1ncnc2[nH]ncc12
inactive: dose: 12.5 mg/kg/injection, schedule: Q01DX009 (ip), vehicle: saline with Tween-80 100 % of control | dose: 12.5 mg/kg/injection, schedule: Q04DX003 (ip), vehicle: saline with Tween-80 90 % of control | dose: 25.0 mg/kg/injection, schedule: Q01DX009 (ip), vehicle: saline with Tween-80 110 % of control | dose: 25.0 mg/kg/injection, schedule: Q04DX003 (ip), vehicle: saline with Tween-80 95 % of control | dose: 50.0 mg/kg/injection, schedule: Q01DX009 (ip), vehicle: saline with Tween-80 105 % of control | dose: 50.0 mg/kg/injection, schedule: Q04DX003 (ip), vehicle: saline with Tween-80 90 % of control

Oc1cccc(Nc2ccccc2)c1
inactive: dose: 50.0 mg/kg/injection, schedule: Q01DX009 (ip), vehicle: olive oil, sesame oil, peanut oil 108 % of control | dose: 100.0 mg/kg/injection, schedule: Q01DX009 (ip), vehicle: olive oil, sesame oil, peanut oil 103 % of control | dose: 200.0 mg/kg/injection, schedule: Q01DX009 (ip), vehicle: olive oil, sesame oil, peanut oil 111 % of control

CCC1(c2ccccc2)CCCC(C(N)=O)C1=O (stereo not given)
inactive: dose: 100.0 mg/kg/injection, schedule: Q01DX001 (ip), vehicle: Klucel (hydroxypropylcellulose) (HPC) 100 % of control | dose: 200.0 mg/kg/injection, schedule: Q01DX001 (ip), vehicle: Klucel (hydroxypropylcellulose) (HPC) 99 % of control | dose: 400.0 mg/kg/injection, schedule: Q01DX001 (ip), vehicle: Klucel (hydroxypropylcellulose) (HPC) 101 % of control

Clc1ccc(CN2COc3c(ccc4ccccc34)C2)cc1
inactive: [1] 103 % of control | dose: 200.0 mg/kg/injection, schedule: Q04DX003 (ip), vehicle: Klucel (hydroxypropylcellulose) (HPC) 94 % of control | dose: 400.0 mg/kg/injection, schedule: Q04DX003 (ip), vehicle: Klucel (hydroxypropylcellulose) (HPC) 94 % of control

CSc1nc(NC2OC(COC(C)=O)C(OC(C)=O)C(OC(C)=O)C2OC(C)=O)c(C(=O)CCl)c(=O)n1C (stereo not given)
inactive: [2] 102 % of control | [3] 96 % of control | [4] 92 % of control

O=C(OC(CCc1ccccc1)C(=O)O)c1ccc([N+](=O)[O-])cc1 (stereo not given)
inactive: dose: 75.0 mg/kg/injection, schedule: Q01DX001 (ip), vehicle: Klucel (hydroxypropylcellulose) (HPC) 111 % of control | dose: 150.0 mg/kg/injection, schedule: Q01DX001 (ip), vehicle: Klucel (hydroxypropylcellulose) (HPC) 112 % of control | dose: 300.0 mg/kg/injection, schedule: Q01DX001 (ip), vehicle: Klucel (hydroxypropylcellulose) (HPC) 97 % of control

Nc1cc2nc3ccccc3c(=O)n2[nH]1
inactive: dose: 50.0 mg/kg/injection, schedule: Q01DX005 (ip), vehicle: Klucel (hydroxypropylcellulose) (HPC) 98 % of control | dose: 100.0 mg/kg/injection, schedule: Q01DX005 (ip), vehicle: Klucel (hydroxypropylcellulose) (HPC) 91 % of control | dose: 200.0 mg/kg/injection, schedule: Q01DX005 (ip), vehicle: Klucel (hydroxypropylcellulose) (HPC) 86 % of control

CCC(CC)(C(=O)Nc1ccc2nc(C)cc(N)c2c1)C(=O)Nc1ccc2nc(C)cc(N)c2c1
inactive: dose: 12.5 mg/kg/injection, schedule: Q01DX005 (ip), vehicle: saline with Tween-80 102 % of control | dose: 25.0 mg/kg/injection, schedule: Q01DX005 (ip), vehicle: saline with Tween-80 90 % of control | [2] 87 % of control and 93 % of control | [4] 93 % of control

O=C1CC(C(=O)O)N(C(=O)Oc2ccccc2)C(C(=O)O)C1 (stereo not given)
inactive: dose: 4.38 mg/kg/injection, schedule: Q01DX005 (ip), vehicle: Klucel (hydroxypropylcellulose) (HPC) 98 % of control | dose: 8.75 mg/kg/injection, schedule: Q01DX005 (ip), vehicle: Klucel (hydroxypropylcellulose) (HPC) 105 % of control | dose: 17.5 mg/kg/injection, schedule: Q01DX005 (ip), vehicle: Klucel (hydroxypropylcellulose) (HPC) 101 % of control

CC(=O)Cc1nc2ccccc2[nH]c1=O
inactive: dose: 15.0 mg/kg/injection, schedule: Q01DX005 (ip), vehicle: Klucel (hydroxypropylcellulose) (HPC) 92 % of control | dose: 30.0 mg/kg/injection, schedule: Q01DX005 (ip), vehicle: Klucel (hydroxypropylcellulose) (HPC) 90 % of control and 96 % of control | [5] 90 % of control and 98 % of control | dose: 120.0 mg/kg/injection, schedule: Q01DX005 (ip), vehicle: Klucel (hydroxypropylcellulose) (HPC) 91 % of control | dose: 240.0 mg/kg/injection, schedule: Q01DX005 (ip), vehicle: Klucel (hydroxypropylcellulose) (HPC) 100 % of control

Cn1c(O)c(N=O)c(=O)[nH]c1=S
inactive: dose: 12.5 mg/kg/injection, schedule: Q04DX002 (ip), vehicle: saline 101 % of control | dose: 25.0 mg/kg/injection, schedule: Q04DX002 (ip), vehicle: saline 103 % of control

Cc1cnn(-c2ccccc2)[n+]1[O-]
inactive: dose: 50.0 mg/kg/injection, schedule: Q01DX005 (ip), vehicle: saline 99 % of control | dose: 100.0 mg/kg/injection, schedule: Q01DX005 (ip), vehicle: saline 96 % of control | dose: 200.0 mg/kg/injection, schedule: Q01DX005 (ip), vehicle: saline 102 % of control

c1ccc(Nc2nnc3nc(-c4ccccc4)c(-c4ccccc4)nn23)cc1
inactive: [2] 91 % of control | [3] 90 % of control | [4] 102 % of control
